Five molecules from US12097241B2, “Methods of treating kidney failure, and/or improving or stablizing renal function using modified relaxin polypeptides” (BRISTOL-MYERS SQUIBB COMPANY, priority 2017, dated 2024) can be followed below.

The term EC50 denotes the concentration giving half of the maximal effect. Read a high EC50 as lower potency in that assay.

This assay deals with T1, human RXFP1 receptor (Homo sapiens, UniProt Q9HBX9).
T1 construct: expressed in transfected cells
T1 sequence (Q9HBX9 1-757): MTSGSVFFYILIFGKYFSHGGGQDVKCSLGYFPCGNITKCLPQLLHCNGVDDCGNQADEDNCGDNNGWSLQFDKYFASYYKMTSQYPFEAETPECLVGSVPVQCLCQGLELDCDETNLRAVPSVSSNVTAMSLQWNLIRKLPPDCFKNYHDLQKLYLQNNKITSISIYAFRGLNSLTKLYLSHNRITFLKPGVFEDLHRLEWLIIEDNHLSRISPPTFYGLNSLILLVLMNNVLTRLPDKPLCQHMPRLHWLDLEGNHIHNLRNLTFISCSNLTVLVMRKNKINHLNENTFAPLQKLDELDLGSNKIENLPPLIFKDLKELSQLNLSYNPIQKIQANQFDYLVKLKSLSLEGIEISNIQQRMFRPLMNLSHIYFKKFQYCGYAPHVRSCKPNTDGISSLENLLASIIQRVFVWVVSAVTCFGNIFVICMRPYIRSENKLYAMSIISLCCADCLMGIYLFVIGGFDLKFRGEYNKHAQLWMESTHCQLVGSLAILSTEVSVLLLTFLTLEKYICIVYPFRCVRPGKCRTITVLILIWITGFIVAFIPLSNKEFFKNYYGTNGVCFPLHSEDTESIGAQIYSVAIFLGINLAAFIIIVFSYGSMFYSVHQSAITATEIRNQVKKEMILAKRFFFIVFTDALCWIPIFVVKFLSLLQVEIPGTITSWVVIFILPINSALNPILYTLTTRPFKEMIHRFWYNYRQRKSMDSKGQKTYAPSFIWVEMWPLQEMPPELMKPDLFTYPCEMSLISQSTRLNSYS
Kind of assay: Intracellular cAMP accumulation assay. The assay is classed as cell-based. A general note: Changes in cAMP serve as a functional read-out for many G protein-coupled receptors.

For `CC[C@H](C)[C@@H]1NC(=O)[C@H](C)NC(=O)[C@H]([C@@H](C)CC)NC(=O)[C@H](CCC(N)=O)NC(=O)[C@H](C)NC(=O)[C@H](CCCNC(=N)N)NC(=O)[C@H](C(C)C)NC(=O)[C@H](CC(C)C)NC(=O)[C@H](CCC(=O)O)NC(=O)[C@H](CCCNC(=N)N)NC(=O)CNC(=O)[C@@H](NC(=O)[C@H](CC(C)C)NC(=O)[C@H](CCCCN)NC(=O)[C@@H](NC(=O)[C@@H](NC(=O)[C@H](CCC(=O)O)NC(=O)[C@H](CCC(=O)O)NC(=O)[C@H](CCSC)NC(=O)[C@H](Cc2c[nH]c3ccccc23)NC(=O)[C@H](CO)NC(=O)[C@H](C)N)C(C)C)[C@@H](C)CC)CSSC[C@@H]2NC(=O)[C@@H](NC(=O)[C@H](CCCCN)NC(=O)[C@H](CC(N)=O)NC(=O)[C@H](C)NC(=O)[C@H](CC(C)C)NC(=O)[C@H](C)NC(=O)[C@H](CO)NC(=O)[C@H](Cc3ccc(O)cc3)NC(=O)[C@H](CC(C)C)NC(=O)[C@@H](N)Cc3ccc(/C(C)=N/OCCNC(=O)[C@H](CCCCN)NC(=O)CNC(=O)[C@@H]4CCCN4C(=O)CC[C@H](NC(=O)CCCCCCCCCCCCCC(=O)O)C(=O)O)cc3)CSSC[C@H](NC(=O)CNC(=O)[C@H](C(C)C)NC(=O)[C@H](Cc3c[nH]cn3)NC2=O)C(=O)N[C@@H]([C@@H](C)O)C(=O)N[C@@H](CCCCN)C(=O)N[C@@H](CCCNC(=N)N)C(=O)N[C@@H](CO)C(=O)N[C@@H](CC(C)C)C(=O)N[C@@H](C)C(=O)N[C@@H](CCCNC(=N)N)C(=O)N[C@@H](Cc2ccccc2)C(=O)N[C@H](C(=O)O)CSSC[C@@H](C(=O)NCC(=O)N[C@@H](CCSC)C(=O)N[C@@H](CO)C(=O)N[C@H](C(=O)N[C@@H](Cc2c[nH]c3ccccc23)C(=O)N[C@@H](CO)C(=O)O)[C@@H](C)O)NC1=O` [AQ1-KGP-Glu^γ-C14-COOH], the EC50 is 0.27 nM. `CC[C@H](C)[C@@H]1NC(=O)[C@H](C)NC(=O)[C@H]([C@@H](C)CC)NC(=O)[C@H](CCC(N)=O)NC(=O)[C@H](C)NC(=O)[C@H](CCCNC(=N)N)NC(=O)[C@H](C(C)C)NC(=O)[C@H](CC(C)C)NC(=O)[C@H](CCC(=O)O)NC(=O)[C@H](CCCNC(=N)N)NC(=O)CNC(=O)[C@@H](NC(=O)[C@H](CC(C)C)NC(=O)[C@H](CCCCN)NC(=O)[C@@H](NC(=O)[C@@H](NC(=O)[C@H](CCC(=O)O)NC(=O)[C@H](CCC(=O)O)NC(=O)[C@H](CCSC)NC(=O)[C@H](Cc2c[nH]c3ccccc23)NC(=O)[C@H](CO)NC(=O)[C@H](C)N)C(C)C)[C@@H](C)CC)CSSC[C@@H]2NC(=O)[C@@H](NC(=O)[C@H](CCCCN)NC(=O)[C@H](CC(N)=O)NC(=O)[C@H](C)NC(=O)[C@H](CC(C)C)NC(=O)[C@H](C)NC(=O)[C@H](CO)NC(=O)[C@H](Cc3ccc(O)cc3)NC(=O)[C@H](CC(C)C)NC(=O)[C@@H](N)Cc3ccc(C(C)=NOCCNC(=O)[C@H](CCCCN)NC(=O)[C@H](CCCCN)NC(=O)[C@H](CO)NC(=O)CNC(=O)CNC(=O)[C@H](CO)NC(=O)CNC(=O)CNC(=O)CC[C@H](NC(=O)CCCCCCCCCCCCC(=O)O)C(=O)O)cc3)CSSC[C@H](NC(=O)CNC(=O)[C@H](C(C)C)NC(=O)[C@H](Cc3c[nH]cn3)NC2=O)C(=O)N[C@@H]([C@@H](C)O)C(=O)N[C@@H](CCCCN)C(=O)N[C@@H](CCCNC(=N)N)C(=O)N[C@@H](CO)C(=O)N[C@@H](CC(C)C)C(=O)N[C@@H](C)C(=O)N[C@@H](CCCNC(=N)N)C(=O)N[C@@H](Cc2ccccc2)C(=O)N[C@H](C(=O)O)CSSC[C@@H](C(=O)NCC(=O)N[C@@H](CCSC)C(=O)N[C@@H](CO)C(=O)N[C@H](C(=O)N[C@@H](Cc2c[nH]c3ccccc23)C(=O)N[C@@H](CO)C(=O)O)[C@@H](C)O)NC1=O` [AQ1-KKSGGSGG-Glu^γ-C13-COOH]: the EC50 was 0.34 nM. Then `CC[C@H](C)[C@@H]1NC(=O)[C@H](C)NC(=O)[C@H]([C@@H](C)CC)NC(=O)[C@H](CCC(N)=O)NC(=O)[C@H](C)NC(=O)[C@H](CCCNC(=N)N)NC(=O)[C@H](C(C)C)NC(=O)[C@H](CC(C)C)NC(=O)[C@H](CCC(=O)O)NC(=O)[C@H](CCCNC(=N)N)NC(=O)CNC(=O)[C@@H](NC(=O)[C@H](CC(C)C)NC(=O)[C@H](CCCCN)NC(=O)[C@@H](NC(=O)[C@@H](NC(=O)[C@H](CCC(=O)O)NC(=O)[C@H](CCC(=O)O)NC(=O)[C@H](CCSC)NC(=O)[C@H](Cc2c[nH]c3ccccc23)NC(=O)[C@H](CO)NC(=O)[C@H](C)N)C(C)C)[C@@H](C)CC)CSSC[C@@H]2NC(=O)[C@@H](NC(=O)[C@H](CCCCN)NC(=O)[C@H](CC(N)=O)NC(=O)[C@H](C)NC(=O)[C@H](CC(C)C)NC(=O)[C@H](C)NC(=O)[C@H](CO)NC(=O)[C@H](Cc3ccc(O)cc3)NC(=O)[C@H](CC(C)C)NC(=O)[C@@H](N)Cc3ccc(/C(C)=N/OCCNC(=O)CN(C)C(=O)CN(C)C(=O)CN(C)C(=O)CN(C)C(=O)[C@H](CO)NC(=O)CN(C)C(=O)CN(C)C(=O)CN(C)C(=O)CN(C)C(=O)CC[C@H](NC(=O)CCCCCCCCCCCCC(=O)O)C(=O)O)cc3)CSSC[C@H](NC(=O)CNC(=O)[C@H](C(C)C)NC(=O)[C@H](Cc3c[nH]cn3)NC2=O)C(=O)N[C@@H]([C@@H](C)O)C(=O)N[C@@H](CCCCN)C(=O)N[C@@H](CCCNC(=N)N)C(=O)N[C@@H](CO)C(=O)N[C@@H](CC(C)C)C(=O)N[C@@H](C)C(=O)N[C@@H](CCCNC(=N)N)C(=O)N[C@@H](Cc2ccccc2)C(=O)N[C@H](C(=O)O)CSSC[C@@H](C(=O)NCC(=O)N[C@@H](CCSC)C(=O)N[C@@H](CO)C(=O)N[C@H](C(=O)N[C@@H](Cc2c[nH]c3ccccc23)C(=O)N[C@@H](CO)C(=O)O)[C@@H](C)O)NC1=O`, with 0.39 nM. In the case of `CC[C@H](C)[C@@H]1NC(=O)[C@H](C)NC(=O)[C@H]([C@@H](C)CC)NC(=O)[C@H](CCC(N)=O)NC(=O)[C@H](C)NC(=O)[C@H](CCCNC(=N)N)NC(=O)[C@H](C(C)C)NC(=O)[C@H](CC(C)C)NC(=O)[C@H](CCC(=O)O)NC(=O)[C@H](CCCNC(=N)N)NC(=O)CNC(=O)[C@@H](NC(=O)[C@H](CC(C)C)NC(=O)[C@H](CCCCN)NC(=O)[C@@H](NC(=O)[C@@H](NC(=O)[C@H](CCC(=O)O)NC(=O)[C@H](CCC(=O)O)NC(=O)[C@H](CCSC)NC(=O)[C@H](Cc2c[nH]c3ccccc23)NC(=O)[C@H](CO)NC(=O)[C@H](C)N)C(C)C)[C@@H](C)CC)CSSC[C@@H]2NC(=O)[C@@H](NC(=O)[C@H](CCCCN)NC(=O)[C@H](CC(N)=O)NC(=O)[C@H](C)NC(=O)[C@H](CC(C)C)NC(=O)[C@H](C)NC(=O)[C@H](CO)NC(=O)[C@H](Cc3ccc(O)cc3)NC(=O)[C@H](CC(C)C)NC(=O)[C@@H](N)Cc3ccc(/C(C)=N/OCCNC(=O)CCC(=O)NCCCNCCCCNCCCNC(=O)CC[C@H](NC(=O)CCCCCCCCCCCCCC(=O)O)C(=O)O)cc3)CSSC[C@H](NC(=O)CNC(=O)[C@H](C(C)C)NC(=O)[C@H](Cc3c[nH]cn3)NC2=O)C(=O)N[C@@H]([C@@H](C)O)C(=O)N[C@@H](CCCCN)C(=O)N[C@@H](CCCNC(=N)N)C(=O)N[C@@H](CO)C(=O)N[C@@H](CC(C)C)C(=O)N[C@@H](C)C(=O)N[C@@H](CCCNC(=N)N)C(=O)N[C@@H](Cc2ccccc2)C(=O)N[C@H](C(=O)O)CSSC[C@@H](C(=O)NCC(=O)N[C@@H](CCSC)C(=O)N[C@@H](CO)C(=O)N[C@H](C(=O)N[C@@H](Cc2c[nH]c3ccccc23)C(=O)N[C@@H](CO)C(=O)O)[C@@H](C)O)NC1=O` [AQ1-Spermine-Glu^γ-C14-COOH], the midpoint of the response, the EC50, lay at 0.39 nM. The molecule `CCCCCCCCCCCCCCC(=O)NCC(=O)NCC(=O)NCC(=O)N[C@@H](CCC(=O)O)C(=O)N[C@@H](CCC(=O)O)C(=O)N1CCC[C@H]1C(=O)N[C@@H](CCC(=O)O)C(=O)N[C@@H](CCC(=O)O)C(=O)N[C@@H](CCC(=O)O)C(=O)N[C@@H](CCC(=O)O)C(=O)N1CCC[C@H]1C(=O)N[C@@H](CCC(=O)O)C(=O)N[C@@H](CCC(=O)O)C(=O)N[C@@H](CCC(=O)O)C(=O)N[C@@H](CCC(=O)O)C(=O)N1CCC[C@H]1C(=O)N[C@@H](CCC(=O)O)C(=O)N[C@@H](CCC(=O)O)C(=O)N[C@@H](CCC(=O)O)C(=O)N[C@@H](CCC(=O)O)C(=O)NCCON=C(C)c1ccc(C[C@H](N)C(=O)N[C@@H](CC(C)C)C(=O)N[C@@H](Cc2ccc(O)cc2)C(=O)N[C@@H](CO)C(=O)N[C@@H](C)C(=O)N[C@@H](CC(C)C)C(=O)N[C@@H](C)C(=O)N[C@@H](CC(N)=O)C(=O)N[C@@H](CCCCN)C(=O)N[C@H]2CSSC[C@@H]3NC(=O)CNC(=O)[C@H](C(C)C)NC(=O)[C@H](Cc4c[nH]cn4)NC(=O)[C@H](CSSC[C@H](NC(=O)[C@H](CC(C)C)NC(=O)[C@H](CCCCN)NC(=O)[C@@H](NC(=O)[C@@H](NC(=O)[C@H](CCC(=O)O)NC(=O)[C@H](CCC(=O)O)NC(=O)[C@H](CCSC)NC(=O)[C@H](Cc4c[nH]c5ccccc45)NC(=O)[C@H](CO)NC(=O)[C@H](C)N)C(C)C)[C@@H](C)CC)C(=O)NCC(=O)N[C@@H](CCCNC(=N)N)C(=O)N[C@@H](CCC(=O)O)C(=O)N[C@@H](CC(C)C)C(=O)N[C@@H](C(C)C)C(=O)N[C@@H](CCCNC(=N)N)C(=O)N[C@@H](C)C(=O)N[C@@H](CCC(N)=O)C(=O)N[C@@H]([C@@H](C)CC)C(=O)N[C@@H](C)C(=O)N[C@@H]([C@@H](C)CC)C(=O)N[C@H](C(=O)NCC(=O)N[C@@H](CCSC)C(=O)N[C@@H](CO)C(=O)N[C@H](C(=O)N[C@@H](Cc4c[nH]c5ccccc45)C(=O)N[C@@H](CO)C(=O)O)[C@@H](C)O)CSSC[C@@H](C(=O)O)NC(=O)[C@H](Cc4ccccc4)NC(=O)[C@H](CCCNC(=N)N)NC(=O)[C@H](C)NC(=O)[C@H](CC(C)C)NC(=O)[C@H](CO)NC(=O)[C@H](CCCNC(=N)N)NC(=O)[C@H](CCCCN)NC(=O)[C@H]([C@@H](C)O)NC3=O)NC2=O)cc1` displayed an EC50 of 0.16 nM.
